Data reported in ChEMBL document CHEMBL5120826, “Effects of β-lapachone and β-nor-lapachone on multidrug efflux transporters and biofilms of Candida glabrata” (Bioorg Med Chem, 2022).
Values after ≈ are worked out from the molar mass of the structure shown. Active and inactive are the calls of the source. The calls are words filed in the database; no cut-off is given here.

How the values were obtained:
Saccharomyces cerevisiae [1] = experiment: Induction of ROS generation in fluconazole resistant Saccharomyces cerevisiae overexpressing CgCdr1p transporter assessed as fold increase in ROS level incubated for 90 mins by DCFH-DA dye based fluorescence assay; format: functional; settings: 1.5 h
Nakaseomyces glabratus [2] = experiment: Indifferent antifungal activity against fluconazole sensitive Candida glabrata ATCC 2001 assessed as fractional inhibitory concentration incubated for 48 hrs in presence of lapachone by checkboard assay based microplate reader analysis; format: functional
Nakaseomyces glabratus [3] = experiment: Indifferent antifungal activity against fluconazole resistant Candida glabrata 109 overexpressing CgCdr1p transporter assessed as fractional inhibitory concentration index incubated for 48 hrs by checkboard assay based microplate reader analysis; format: functional
Saccharomyces cerevisiae [4] = experiment: Antifungal activity against fluconazole resistant Saccharomyces cerevisiae overexpressing CgCdr2p transporter assessed as reduction in fungal growth incubated for 48 hrs by checkboard assay based microplate reader analysis; format: functional
Nakaseomyces glabratus [5] = experiment: Indifferent antifungal activity against fluconazole resistant Candida glabrata 109 overexpressing CgCdr1p transporter assessed as reduction in fungal growth incubated for 48 hrs by checkboard assay based microplate reader analysis; format: functional
Nakaseomyces glabratus [6] = experiment: Induction of ROS generation in fluconazole resistant Candida glabrata 109 overexpressing CgCdr1p transporter assessed as fold increase in ROS production at 200 ug/ml incubated for 48 hrs by DCFH-DA dye based fluorescence assay; format: functional
Nakaseomyces glabratus [7] = experiment: Antibiofilm activity against fluconazole resistant Candida glabrata 109 overexpressing CgCdr1p transporter assessed as inhibition of biofilm formation at 200 ug/ml incubated for 48 hrs; format: functional
Nakaseomyces glabratus [8] = experiment: Additive antifungal activity against fluconazole resistant Candida glabrata 109 overexpressing CgCdr1p transporter assessed as fractional inhibitory concentration incubated for 48 hrs in presence of lapachone by checkboard assay based microplate reader analysis; format: functional
Saccharomyces cerevisiae [9] = experiment: Antifungal activity against fluconazole resistant Saccharomyces cerevisiae overexpressing CgCdr2p transporter assessed as reduction in fungal growth incubated for 48 hrs in presence of fluconazole by serial dilution method; format: functional, organism-based
Nakaseomyces glabratus [10] = experiment: Antifungal activity against fluconazole sensitive Candida glabrata ATCC 2001 assessed as reduction in fungal growth incubated for 48 hrs by checkboard assay based microplate reader analysis; format: functional
Nakaseomyces glabratus [11] = experiment: Induction of morphological changes in fluconazole resistant Candida glabrata 109 overexpressing CgCdr1p transporter assessed as decrease in cellular density at 200 ug/ml by calcofluor white dye based confocal laser scanning microscopy; format: functional, organism-based; settings: dose 200.0 µg/ml
Nakaseomyces glabratus [12] = experiment: Indifferent antifungal activity against fluconazole sensitive Candida glabrata ATCC 2001 assessed as fractional inhibitory concentration incubated for 48 hrs in presence of fluconazole by checkboard assay based microplate reader analysis; format: functional
Nakaseomyces glabratus [13] = experiment: Indifferent antifungal activity against fluconazole sensitive Candida glabrata ATCC 2001 assessed as reduction in fungal growth incubated for 48 hrs in presence of lapachone by checkboard assay based microplate reader analysis; format: functional
Saccharomyces cerevisiae [14] = experiment: Inhibition of fluconazole resistant Saccharomyces cerevisiae overexpressing CgCdr1p transporter ATPase activity assessed as reduction in inorganic phosphate release in presence of ATP incubated for 1 hr by Fiske and Sub barrow method; settings: concentration not given here
Saccharomyces cerevisiae [15] = experiment: Effect on efflux pump function in fluconazole resistant Saccharomyces cerevisiae overexpressing CgCdr1p transporter assessed as accumulation of Nile red fluorescence incubated for 1 hr by fluorescence based assay; format: functional
Nakaseomyces glabratus [16] = experiment: Antibiofilm activity against fluconazole sensitive Candida glabrata ATCC 2001 assessed as inhibition of biofilm formation at 200 ug/ml incubated for 48 hrs; format: functional
[17] = Inhibition of fluconazole sensitive Candida glabrata ATCC 2001 […] cell adhesion to polystyrene at 200 ug/ml incubated for 90 mins by MTT assay; format: functional; settings: Nakaseomyces glabratus, ATCC 2001, 1.5 h
Saccharomyces cerevisiae [18] = experiment: Synergistic antifungal activity against fluconazole resistant Saccharomyces cerevisiae overexpressing CgCdr2p transporter assessed as fractional inhibitory concentration index incubated for 48 hrs by checkboard assay based microplate reader analysis; format: functional
Nakaseomyces glabratus [19] = experiment: Effect on efflux pump function in fluconazole resistant Candida glabrata 109 overexpressing CgCdr1p transporter assessed as accumulation of Nile red fluorescence incubated for 1 hr by fluorescence based assay; format: functional
Saccharomyces cerevisiae [20] = experiment: Antifungal activity against fluconazole resistant Saccharomyces cerevisiae overexpressing CgCdr1p transporter assessed as reduction in fungal growth at lower concentration incubated for 48 hrs by serial dilution method; format: functional, organism-based
Saccharomyces cerevisiae [21] = experiment: Effect on efflux pump function in fluconazole resistant Saccharomyces cerevisiae overexpressing CgCdr2p transporter assessed as accumulation of Nile red fluorescence incubated for 1 hr by fluorescence based assay; format: functional
Nakaseomyces glabratus [22] = experiment: Additive antifungal activity against fluconazole resistant Candida glabrata 109 overexpressing CgCdr1p transporter assessed as reduction in fungal growth incubated for 48 hrs in presence of fluconazole by checkboard assay based microplate reader analysis; format: functional
Nakaseomyces glabratus [23] = experiment: Induction of morphological changes in fluconazole resistant Candida glabrata 109 overexpressing CgCdr1p transporter assessed as decrease in biofilm thickness at 200 ug/ml by calcofluor white dye based confocal laser scanning microscopy; format: functional, organism-based; settings: dose 200.0 µg/ml
Nakaseomyces glabratus [24] = experiment: Induction of morphological changes in fluconazole resistant Candida glabrata 109 overexpressing CgCdr1p transporter assessed as decrease in cell-cell adhesion at 200 ug/ml by calcofluor white dye based confocal laser scanning microscopy; format: functional, organism-based; settings: dose 200.0 µg/ml
Nakaseomyces glabratus [25] = experiment: Antibiofilm activity against fluconazole sensitive Candida glabrata ATCC 2001 assessed as reduction in metabolic activity up to 200 ug/ml incubated for 48 hrs; format: functional; set-up: scale not given: the % may be the effect or the level left; settings: dose <= 200 µg/ml, up to 200 µg/mL
Nakaseomyces glabratus [26] = experiment: Indifferent antifungal activity against fluconazole sensitive Candida glabrata ATCC 2001 assessed as fractional inhibitory concentration index incubated for 48 hrs by checkboard assay based microplate reader analysis; format: functional
Saccharomyces cerevisiae [27] = experiment: Induction of ROS generation in fluconazole resistant Saccharomyces cerevisiae overexpressing CgCdr2p transporter assessed as fold increase in ROS level incubated for 90 mins by DCFH-DA dye based fluorescence assay; format: functional; settings: 1.5 h
Saccharomyces cerevisiae [28] = experiment: Antifungal activity against fluconazole resistant Saccharomyces cerevisiae overexpressing CgCdr1p transporter assessed as reduction in fungal growth incubated for 48 hrs in presence of fluconazole by serial dilution method; format: functional, organism-based
Nakaseomyces glabratus [29] = experiment: Indifferent antifungal activity against fluconazole resistant Candida glabrata 109 overexpressing CgCdr1p transporter assessed as reduction in fungal growth incubated for 48 hrs in presence of fluconazole by checkboard assay based microplate reader analysis; format: functional
Nakaseomyces glabratus [30] = experiment: Antifungal activity against fluconazole resistant Candida glabrata 109 overexpressing CgCdr1p transporter assessed as reduction in fungal growth incubated for 48 hrs in presence of fluconazole by serial dilution method; format: functional, organism-based
Nakaseomyces glabratus [31] = experiment: Antibiofilm activity against fluconazole resistant Candida glabrata 109 overexpressing CgCdr1p transporter assessed as reduction in metabolic activity at highest concentration incubated for 48 hrs; format: functional; set-up: scale not given: the % may be the effect or the level left
Nakaseomyces glabratus [32] = experiment: Indifferent antifungal activity against fluconazole sensitive Candida glabrata ATCC 2001 assessed as reduction in fungal growth incubated for 48 hrs in presence of fluconazole by checkboard assay based microplate reader analysis; format: functional
Nakaseomyces glabratus [33] = experiment: Induction of ROS generation in fluconazole resistant Candida glabrata 109 overexpressing CgCdr1p assessed as fold increase in ROS level incubated for 90 mins by DCFH-DA dye based fluorescence assay; format: functional; settings: 1.5 h
Saccharomyces cerevisiae [34] = experiment: Antifungal activity against fluconazole resistant Saccharomyces cerevisiae overexpressing CgCdr1p transporter assessed as reduction in fungal growth incubated for 48 hrs by checkboard assay based microplate reader analysis; format: functional

In the case of CC1(C)CCC2=C(O1)c1ccccc1C(=O)C2=O [LAPACHONE], the “fold change (FC)” value (Saccharomyces cerevisiae [1]) is reported as 3, the FIC (Nakaseomyces glabratus [2]) is reported as 1 µg/mL and the “fractional inhibitory concentration index (FICI)” value (Nakaseomyces glabratus [3]) is reported as 2. For the same compound, the MIC (Saccharomyces cerevisiae [4]) was 25 µg/mL (≈ 103 µM), the MIC (Nakaseomyces glabratus [5]) was over 200 µg/mL and the “fold change (FC)” value (Nakaseomyces glabratus [6]; dose 200 µg/ml) was 16. For the same compound, the inhibition at 200 µg/mL (Nakaseomyces glabratus [7]) was 72%, the FIC (Nakaseomyces glabratus [8]) was 0.5 µg/mL and the Activity (Saccharomyces cerevisiae [9]) was “Active”. For the same compound, the MIC (Nakaseomyces glabratus [10]) was 12.5 µg/mL (≈ 51.6 µM), the Activity (Nakaseomyces glabratus [11]) was “Active” and the FIC (Nakaseomyces glabratus [12]) was 1 µg/mL. The MIC (Nakaseomyces glabratus [13]) was 12.5 µg/mL, the inhibition (Saccharomyces cerevisiae [14]) was 76% and the Activity (Saccharomyces cerevisiae [15]) was 100%. The inhibition at 200 µg/mL (Nakaseomyces glabratus [16]) was 95%, the inhibition at 200 µg/mL [17] was 55% and the “fractional inhibitory concentration index (FICI)” value (Saccharomyces cerevisiae [18]) was 0.31. The Activity (Nakaseomyces glabratus [19]) was 35%, the Activity (Saccharomyces cerevisiae [20]) was “Active” and the Activity (Saccharomyces cerevisiae [21]) was 50%. The MIC (Nakaseomyces glabratus [22]) was 31.2 µg/mL, the Activity (Nakaseomyces glabratus [23]) was “Active” and the Activity (Nakaseomyces glabratus [24]) was “Active”. For the same compound, the Activity (Nakaseomyces glabratus [25]) was 93%, the “fractional inhibitory concentration index (FICI)” value (Nakaseomyces glabratus [26]) was 2 and the “fold change (FC)” value (Saccharomyces cerevisiae [27]) was 3. The Activity (Saccharomyces cerevisiae [28]) was “Active”, the MIC (Nakaseomyces glabratus [29]) was over 1000 µg/mL and the Activity (Nakaseomyces glabratus [30]) was “Active”. The Activity (Nakaseomyces glabratus [31]) was 88%, the MIC (Nakaseomyces glabratus [32]) was 15.6 µg/mL and the “fold change (FC)” value (Nakaseomyces glabratus [33]) was 5. It also gave an MIC (Saccharomyces cerevisiae [34]) of 100 µg/mL (≈ 413 µM).

With CC1(C)CC2=C(O1)c1ccccc1C(=O)C2=O [NOR-BETA-LAPACHONE] the “fold change (FC)” value (Saccharomyces cerevisiae [1]) was 3, the FIC (Nakaseomyces glabratus [2]) was 1 µg/mL and the “fractional inhibitory concentration index (FICI)” value (Nakaseomyces glabratus [3]) was 2. For the same compound, the MIC (Saccharomyces cerevisiae [4]) was 25 µg/mL (≈ 110 µM), the MIC (Nakaseomyces glabratus [5]) was over 200 µg/mL and the Activity (Nakaseomyces glabratus [6]; dose 200.0 µg/ml) was “Active”. For the same compound, the inhibition at 200 µg/mL (Nakaseomyces glabratus [7]) was 48%, the FIC (Nakaseomyces glabratus [8]) was 0.5 µg/mL and the Activity (Saccharomyces cerevisiae [9]) was “Active”. The MIC (Nakaseomyces glabratus [10]) was 15.6 µg/mL (≈ 68.3 µM), the Activity (Nakaseomyces glabratus [11]) was “Active” and the FIC (Nakaseomyces glabratus [12]) was 1 µg/mL. It also gave an MIC (Nakaseomyces glabratus [13]) of 100 µg/mL, an inhibition (Saccharomyces cerevisiae [14]) of 25% and an Activity (Saccharomyces cerevisiae [15]) of 100%. For the same compound, the inhibition at 200 µg/mL (Nakaseomyces glabratus [16]) was 70%, the inhibition at 200 µg/mL [17] was 28% and the “fractional inhibitory concentration index (FICI)” value (Saccharomyces cerevisiae [18]) was 0.37. For the same compound, the Activity (Nakaseomyces glabratus [19]) was 100%, the Activity (Saccharomyces cerevisiae [20]) was “Active” and the Activity (Saccharomyces cerevisiae [21]) was 50%. The MIC (Nakaseomyces glabratus [22]) was 31.2 µg/mL, the Activity (Nakaseomyces glabratus [23]) was “Active” and the Activity (Nakaseomyces glabratus [24]) was “Active”. For the same compound, the Activity (Nakaseomyces glabratus [25]) was 81%, the “fractional inhibitory concentration index (FICI)” value (Nakaseomyces glabratus [26]) was 2 and the “fold change (FC)” value (Saccharomyces cerevisiae [27]) was 3. For the same compound, the Activity (Saccharomyces cerevisiae [28]) was “Active”, the MIC (Nakaseomyces glabratus [29]) was over 1000 µg/mL and the Activity (Nakaseomyces glabratus [30]) was “Active”. The Activity (Nakaseomyces glabratus [31]) was 46%, the MIC (Nakaseomyces glabratus [32]) was 15.6 µg/mL and the “fold change (FC)” value (Nakaseomyces glabratus [33]) was 5. It also gave an MIC (Saccharomyces cerevisiae [34]) of 50 µg/mL (≈ 219 µM).
